One molecule from patent US20250066423A1, “SESTRIN-MAPK COMPLEX INHIBITORS” (Sentcell Ltd, priority 2021, published 2025) can be followed below.

The structures appear in SMILES notation. Peptide text beside a SMILES is read from it.

For test [1], the system named is sMAC signalling (sestrin 1, 2 and 3 expression, AMPK and MAPK phosphorylation). The experiment in a line: Immunoblot of sMAC signalling in CD4+ T cells treated with DOS compounds (heat-map). It is filed as cell-based, human. On the procedure:
CD4+ T cells were isolated from PBMCs from healthy donors, treated with DOS compounds for 4 hours and harvested for immunoblot analysis. The heat-map of Sestrin 1, Sestrin 2, Sestrin 3, p-mTOR1, p-JNK, p-AMPK, p-ERK1/2, and p-p38, represents the mean of three to nine experiments. Histone 3 was used as a control.
• 1. CD4+ cells were separated from PBMC using appropriate microbeads kit (Miltenyi) • 2. Cells were resuspended in whole RPMI medium and plated in the 24-multiwell plate • 3. Then activated for 4 hrs with DOS compounds • 4. Cells were then harvested, washed with PBS and resuspended in lysis buffer (RIPA with […]) • 5. The cell-lysis mix was incubated for 20 mins on ice • 6. Samples were centrifuged for 20 mins at the max speed • 7. The supernatant was collected and Lemmli buffer+β-Mercaptoethanol was added • 8. Samples were then boiled for 5 mins at 95° C. • 9. Samples were loaded on the polyacrylamide gel and left to run in TRIS-Glycine-SDS running buffer • 10. Once the run was completed the proteins were transferred from the gel to the nitrocellulose membrane by using the Trans-Blot machine (Biorad) • 11. Membrane was washed with 0.1% Tween-TBS buffer and blocked in 5% non-fat milk for 1 hr • 12. Followed incubation with the primary antibody o.n. • 13. The day after, the membrane was washed with 0.1% Tween-TBS buffer for three times for at least 30 mins each • 14. Secondary antibody was then added for 1h • 15. The membrane was the washed with 0.1% Tween-TBS buffer for three times for at least 30 mins each • 16. The signal was developed using ECL solution
This was shown by downregulation of sestrin 1, 2 and 3 expression, and AMPK and MAPK phosphorylation.
A general note: In western blotting, separated proteins are transferred to a membrane and probed.

Test [2] has as its system PBMCs from elderly donors, heat-inactivated SARS-COV2. Description: COVID-specific antibodies in PBMCs from elderly donors (ELISA). It is filed as cell-based, human. To be noted: PBMCs from elderly donors (75-95 years), 10 uM. For orientation: ELISA stands for enzyme-linked immunosorbent assay.
Test [3] relates to sestrin mRNA. The experiment in a line: Sestrin mRNA expression in spleens of DOS treated old mice (qPCR). It is filed as in vivo. As to conditions: single dose, from day ten. On the procedure:
FIG. 13 illustrates the level of Sestrin in DOS-treated murine blood and tissues. (A-B) Old mice were inoculated subcutaneously with DOS46L compound (0.1 mg/kg or 1 mg/kg). Blood was withdrawn at 0, 48, 72 hours and 8 weeks after the inoculation. Pharmacodynamics of Sestrin 2 were analysed by FACS in CD4+ T cell population. […] Untreated age-matched controls are shown. (D) 72 hr after DOS treatment, mice were sacrificed and old tissues were collected to analyse Sestrin levels in different organs by immunoblotting. **p<0.01, *p<0.05.
• 1. Transduced cells were collected • 2. Cell suspension was centrifugated and the cell pellet resuspended in warm PBS with 5 μM of CTV • 3. Followed an incubation of 10 min at 37° C. • 4. Cold PBS was added and cells were centrifugated • 5. Cells were then resuspended in medium and counted • 6. An aliquot of these cells were checked by FACS • 7. Cells were then stimulated with DOS in 200 μL and left for 12 days in culture RNA Extraction, Retro-Transcription and qPCR • 1. CD4+ cells were purified from mouse spleen using appropriate microbeads (Miltenyi) • 2. Total RNA from CD4+ cells was extracted using the “PureLink RNA Mini Kit” (Invitrogen). • 3. RNA concentration was acquired by NANO-DROP spectrophotometer (Thermo-Scientific). • 4. […]

Test [4] has as its system H1N1 PR8/54. Further details: species or system mice. As to conditions: mouse, in vivo.
In test [5] the test system is telomere extension in T cells exposed to APCs. Description: Telomere length quantification assay (qPCR). It is filed as cell-based, human. As to conditions: 5 donors. From the text: FIG. 23 illustrates live transfer of telomeres from APC to T cells in the presence of DOS. (A, left): T cells showing baseline fluorescence in the channel of Tel C; (A, middle): T cells treated with DOS cultured with APC; (A, right): T cells co-cultured with APC, in the absence of DOS. DOS enhances telomere transfer by ˜2 fold. Representative of 3 experiments. (B): Telomere extension was quantified by qPCR. Synapse-driven telomere extension (Akb) in T cells exposed to APCs and treated with or without DOS46L. Results from 5 donors are shown. […] Mann-Whitney was used. *p<0.05.
• 1. CD4− and CD4+ cells were purified from PBMC using appropriate microbead kit (Miltenyi) • 2. CD4+ cells were then used to purify CD27− and CD28− cells by using Miltenyi purification kits. • 3. A pellet of CD4− and CD4+/CD27−/CD28− cells were frozen. • 4. 4*10^6 CD4− were mixed with 1*10^6 CD4+/CD27−/CD28− cells in presence or not of DOS 46L 10 μM. • 14. The mixed cells were stimulated o.n. with a mix 1:1 of CMV and EBV • 15. The day after, CD4− cells were detached from conjugates with CD4+/CD27−/CD28− cells with a syringe by using cold PBS • 5. CD4− were then purified from CD4+ cells by using Miltenyi purification kits. • 16. CD4− and CD4+ cell pellets post conjugate were then frozen. • 17.
A general note: In qPCR the cycle at which signal appears reflects the starting amount.

Take `CC[C@H](C)[C@@H]1NC(=O)[C@H](Cc2ccccc2)NC(=O)[C@H](C)NC(=O)[C@H](C(C)C)NC(=O)[C@@H]2CCCN2C1=O` [DOS46L] (cyclo(AFIPV)): in test [1], the “effectiveness at sMAC inactivation among all of the DOS compounds tested” value is “most effective” and the sMAC pathway silenced was 90%. In addition, the “sestrins inhibited (pan or selective inhibitor)” value in test [1] (CD4+ T cells, 4 hours, FIG. 5 heat-map) was “inhibit all three sestrins”. The “COVID-specific IgG antibodies” value in test [2] is “stimulation of COVID-specific antibodies”. In test [3], the “sestrin mRNA expression” value is recorded as “Long term mRNA silencing of sestrin expression”. The “protection from lethal viral challenge without vaccine” value in test [4] is listed as “prevented death”. In addition, in test [5], the synapse-driven telomere extension result is “restoration in telomere length is similar to the extension observed in young T cells”.
